Converted amounts (≈) assume the structure as drawn. Like-named read-outs stand apart in the source and are kept apart here.
Columns and labels:
[1] = target: T1, PBP3 from Escherichia coli (K-12) (Escherichia coli, UniProt P0AD68); assay: Bocillin-FL fluorescence polarization competition binding, E. coli PBP3
T1 construct: made in house
How it was run: (§1)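 Purified PBPs pre-incubated with inhibitor (E. coli PBP3 1.5 μM, 30 min; P. aeruginosa PBP3 0.75 μM, A. baumannii PBP1a 1 μM and PBP3 0.2 μM, 15 min), then Bocillin-FL 0.1 μM (0.05 μM for PBP1a) added; FP read up to 60 min. EC50 = concentration halving bound Bocillin-FL.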

[2] = system: A. baumannii CDC-0033; assay: microbe, parasite or virus in culture; assay type: cell-based; settings: Acinetobacter baumannii, CDC0033, read-out: MIC, A. baumannii CDC-0033
[3] = system: N. gonorrhoeae WHO Z; assay: Liquid broth MIC in Fastidious broth; settings: Neisseria gonorrhoeae
[4] = system: N. gonorrhoeae ATCC 49226; assay: Liquid broth MIC in Fastidious broth; settings: Neisseria gonorrhoeae
[5] = system: N. gonorrhoeae WHO K; assay: Liquid broth MIC in Fastidious broth; settings: Neisseria gonorrhoeae
[6] = system: N. gonorrhoeae WHO G; assay: Liquid broth MIC in Fastidious broth; settings: Neisseria gonorrhoeae
[7] = system: P. aeruginosa CDC-0095; assay: microbe, parasite or virus in culture; assay type: cell-based; settings: Pseudomonas aeruginosa, CDC0095, read-out: Minimum inhibitory concentration, P. aeruginosa CDC-0095
[8] = target: T2, PBP3 from Pseudomonas aeruginosa (PAO1) (Pseudomonas aeruginosa, UniProt G3XD46); assay: Bocillin-FL fluorescence polarization competition binding, P. aeruginosa PBP3; settings: Binding affinity to P. aeruginosa PBP3; fluorescence polarization competition binding assay using Bocillin-FL; read-out: P. aeruginosa PBP3 Potency
T2 construct: made in house
T2 sequence (G3XD46 whole entry): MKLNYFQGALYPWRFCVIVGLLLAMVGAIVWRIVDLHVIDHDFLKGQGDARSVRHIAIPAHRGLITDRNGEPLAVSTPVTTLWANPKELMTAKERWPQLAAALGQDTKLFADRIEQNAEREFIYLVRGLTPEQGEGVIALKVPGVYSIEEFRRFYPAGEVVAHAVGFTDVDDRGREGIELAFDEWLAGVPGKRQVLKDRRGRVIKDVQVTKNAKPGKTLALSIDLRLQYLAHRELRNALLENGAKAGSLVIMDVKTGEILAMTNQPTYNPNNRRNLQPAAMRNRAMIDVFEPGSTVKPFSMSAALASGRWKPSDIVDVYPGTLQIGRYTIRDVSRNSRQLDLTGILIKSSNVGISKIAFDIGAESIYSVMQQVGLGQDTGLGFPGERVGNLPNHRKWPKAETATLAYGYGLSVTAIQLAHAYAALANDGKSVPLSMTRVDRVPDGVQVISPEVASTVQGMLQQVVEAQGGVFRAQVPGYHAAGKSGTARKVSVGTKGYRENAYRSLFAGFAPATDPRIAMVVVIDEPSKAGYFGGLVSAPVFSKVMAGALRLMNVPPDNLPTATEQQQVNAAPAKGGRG
How it was run: as §1

[9] = system: P. aeruginosa CDC-0054; assay: microbe, parasite or virus in culture; assay type: cell-based; settings: Pseudomonas aeruginosa, CDC0054, read-out: Minimum inhibitory concentration, P. aeruginosa CDC-0054
[10] = system: N. gonorrhoeae WHO M; assay: Liquid broth MIC in Fastidious broth; settings: Neisseria gonorrhoeae
[11] = system: N. gonorrhoeae MS11; assay: Liquid broth MIC in Fastidious broth; settings: Neisseria gonorrhoeae
[12] = system: N. gonorrhoeae FA1090; assay: Liquid broth MIC in Fastidious broth; settings: Neisseria gonorrhoeae
[13] = read-out: Minimum Inhibitory Concentration (MIC), N. gonorrhoeae WHO Z
[14] = ATCC49226, read-out: Minimum Inhibitory Concentration (MIC), N. gonorrhoeae ATCC 49226
[15] = read-out: Minimum Inhibitory Concentration (MIC), N. gonorrhoeae WHO K
[16] = read-out: Minimum Inhibitory Concentration (MIC), N. gonorrhoeae WHO G
[17] = read-out: Minimum Inhibitory Concentration (MIC), N. gonorrhoeae WHO M
[18] = MS11, read-out: Minimum Inhibitory Concentration (MIC), N. gonorrhoeae MS11
[19] = FA1090, read-out: Minimum Inhibitory Concentration (MIC), N. gonorrhoeae FA 1090
[20] = read-out: Minimum Inhibitory Concentration, WHO Z
[21] = ATCC49226, read-out: Minimum Inhibitory Concentration, ATCC 49226
[22] = read-out: Minimum Inhibitory Concentration, WHO K
[23] = read-out: Minimum Inhibitory Concentration, WHO G
[24] = read-out: Minimum Inhibitory Concentration, WHO M
[25] = MS11, read-out: Minimum Inhibitory Concentration, MS11
[26] = FA1090, read-out: Minimum Inhibitory Concentration, FA 1090

T1 sequence (P0AD68 1-577): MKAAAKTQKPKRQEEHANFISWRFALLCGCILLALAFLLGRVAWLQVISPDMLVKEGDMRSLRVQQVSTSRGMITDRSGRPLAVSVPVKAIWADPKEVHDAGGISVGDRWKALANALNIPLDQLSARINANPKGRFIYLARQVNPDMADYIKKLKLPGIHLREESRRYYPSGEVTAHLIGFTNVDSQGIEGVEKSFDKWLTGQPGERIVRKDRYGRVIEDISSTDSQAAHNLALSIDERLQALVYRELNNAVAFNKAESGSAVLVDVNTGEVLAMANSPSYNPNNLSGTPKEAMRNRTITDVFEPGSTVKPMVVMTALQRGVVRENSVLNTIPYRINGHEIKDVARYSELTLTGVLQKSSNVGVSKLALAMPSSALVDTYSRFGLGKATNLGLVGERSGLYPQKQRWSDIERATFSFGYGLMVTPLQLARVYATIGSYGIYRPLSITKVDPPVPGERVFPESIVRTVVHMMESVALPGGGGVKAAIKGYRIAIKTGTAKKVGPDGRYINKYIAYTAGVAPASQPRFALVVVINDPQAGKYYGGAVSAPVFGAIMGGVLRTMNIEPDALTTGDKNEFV

| SMILES | EC50 [1] [µM] | MIC [2] [µg/mL] | MIC [3, 13] [µg/mL] | MIC [4, 14] [µg/mL] | MIC [5, 15] [µg/mL] | MIC [6, 16] [µg/mL] | MIC [7] [µg/mL] | IC50 [8] [µM] | MIC [9] [µg/mL] | MIC [10, 17] [µg/mL] | MIC [11, 18] [µg/mL] | MIC [12, 19] [µg/mL] | MIC [3, 20] [µg/mL] | MIC [4, 21] [µg/mL] | MIC [5, 22] [µg/mL] | MIC [6, 23] [µg/mL] | MIC [10, 24] [µg/mL] | MIC [11, 25] [µg/mL] | MIC [12, 26] [µg/mL] |
| --- | --- | --- | --- | --- | --- | --- | --- | --- | --- | --- | --- | --- | --- | --- | --- | --- | --- | --- | --- |
| O=C(O)c1c(F)ccc2c1OB(O)[C@@H](NC(=O)[C@H](NC(=O)N1CCN(CCNC(=O)[C@@H]3CCCN3)C(=O)C1=O)c1cc(F)c(O)c(O)c1Cl)C2 [Example 229, (R)-3-((R)-2-(2-chloro-5-fluoro-3,4-dihydroxyphenyl)-2-(2,3-dioxo-4-(2-((S)-pyrrolidine-2-carboxamido)ethyl)piperazine-1-carboxamido)acetamido)-7-fluoro-2-hydroxy-3,4-dihydro-2H-benzo[e][1,2]oxaborinine-8-carboxylic acid] | 10 to 50 | 8 to 16 (≈ 11.1 to 22.1 µM) | 16 to 32 (≈ 22.1 to 44.3 µM) | 16 to 32 (≈ 22.1 to 44.3 µM) | 16 to 32 (≈ 22.1 to 44.3 µM) | 4 to 8 (≈ 5.53 to 11.1 µM) | < 1 | < 10 | 2 to 4 (≈ 2.77 to 5.53 µM) | 4 to 8 (≈ 5.53 to 11.1 µM) | 16 to 32 (≈ 22.1 to 44.3 µM) | 4 to 8 (≈ 5.53 to 11.1 µM) | – | – | – | – | – | – | – |
| O=C(NCCN1CCN(C(=O)NC(C(=O)N[C@H]2Cc3ccc(F)c(C(=O)O)c3OB2O)c2cc(F)c(O)c(O)c2Cl)C(=O)C1=O)c1ccncc1 (stereo partly drawn) [Example 216, (3R)-3-(2-(2-chloro-5-fluoro-3,4-dihydroxyphenyl)-2-(4-(2-(isonicotinamido)ethyl)-2,3-dioxopiperazine-1-carboxamido)acetamido)-7-fluoro-2-hydroxy-3,4-dihydro-2H-benzo[e][1,2]oxaborinine-8-carboxylic acid] | < 10 | 8 to 16 (≈ 10.9 to 21.9 µM) | 16 to 32 (≈ 21.9 to 43.8 µM) | 16 to 32 (≈ 21.9 to 43.8 µM) | > 64 | 4 to 8 (≈ 5.47 to 10.9 µM) | 8 to 16 (≈ 10.9 to 21.9 µM) | < 10 | 8 to 16 (≈ 10.9 to 21.9 µM) | 4 to 8 (≈ 5.47 to 10.9 µM) | 16 to 32 (≈ 21.9 to 43.8 µM) | 4 to 8 (≈ 5.47 to 10.9 µM) | – | – | – | – | – | – | – |
| O=C(CN1CCN(C(=O)NC(C(=O)N[C@H]2Cc3ccc(F)c(C(=O)O)c3OB2O)c2cc(F)c(O)c(O)c2Cl)C(=O)C1=O)Nc1nccs1 (stereo partly drawn) [Example 235, (3R)-3-(2-(2-chloro-5-fluoro-3,4-dihydroxyphenyl)-2-(2,3-dioxo-4-(2-oxo-2-(thiazol-2-ylamino)ethyl)piperazine-1-carboxamido)acetamido)-7-fluoro-2-hydroxy-3,4-dihydro-2H-benzo[e][1,2]oxaborinine-8-carboxylic acid] | < 10 | 8 to 16 (≈ 11.1 to 22.1 µM) | 16 to 32 (≈ 22.1 to 44.3 µM) | 16 to 32 (≈ 22.1 to 44.3 µM) | 16 to 32 (≈ 22.1 to 44.3 µM) | 4 to 8 (≈ 5.53 to 11.1 µM) | 2 to 4 (≈ 2.77 to 5.53 µM) | < 10 | 8 to 16 (≈ 11.1 to 22.1 µM) | 4 to 8 (≈ 5.53 to 11.1 µM) | 16 to 32 (≈ 22.1 to 44.3 µM) | 1 to 2 (≈ 1.38 to 2.77 µM) | – | – | – | – | – | – | – |
| CN(CCN1CCN(C(=O)NC(C(=O)N[C@H]2Cc3ccc(F)c(C(=O)O)c3OB2O)c2cc(F)c(O)c(O)c2Cl)C(=O)C1=O)S(=O)(=O)c1ccc(C(N)=O)cc1 (stereo partly drawn) [Example 223, (3R)-3-(2-(4-(2-((4-carbamoyl-N-methylphenyl)sulfonamido)ethyl)-2,3-dioxopiperazine-1-carboxamido)-2-(2-chloro-5-fluoro-3,4-dihydroxyphenyl)acetamido)-7-fluoro-2-hydroxy-3,4-dihydro-2H-benzo[e][1,2]oxaborinine-8-carboxylic acid] | < 10 | 8 to 16 (≈ 9.72 to 19.4 µM) | 16 to 32 (≈ 19.4 to 38.9 µM) | 16 to 32 (≈ 19.4 to 38.9 µM) | > 64 | 16 to 32 (≈ 19.4 to 38.9 µM) | 2 to 4 (≈ 2.43 to 4.86 µM) | < 10 | 2 to 4 (≈ 2.43 to 4.86 µM) | 16 to 32 (≈ 19.4 to 38.9 µM) | 16 to 32 (≈ 19.4 to 38.9 µM) | 4 to 8 (≈ 4.86 to 9.72 µM) | – | – | – | – | – | – | – |
| O=C(NCCS(=O)(=O)N1CCN(C(=O)NC(C(=O)N[C@H]2Cc3ccc(F)c(C(=O)O)c3OB2O)c2cc(F)c(O)c(O)c2Cl)C1=O)Nc1cccc(O)c1 (stereo partly drawn) [Example 266, (3R)-3-(2-(2-chloro-5-fluoro-3,4-dihydroxyphenyl)-2-(3-((2-(3-(3-hydroxyphenyl)ureido)ethyl)sulfonyl)-2-oxoimidazolidine-1-carboxamido)acetamido)-7-fluoro-2-hydroxy-3,4-dihydro-2H-benzo[e][1,2]oxaborinine-8-carboxylic acid] | < 10 | 2 to 4 (≈ 2.51 to 5.02 µM) | – | – | – | – | 8 to 16 (≈ 10 to 20.1 µM) | < 10 | 2 to 4 (≈ 2.51 to 5.02 µM) | – | – | – | 4 to 8 (≈ 5.02 to 10 µM) | 16 to 32 (≈ 20.1 to 40.2 µM) | 16 to 32 (≈ 20.1 to 40.2 µM) | 16 to 32 (≈ 20.1 to 40.2 µM) | 4 to 8 (≈ 5.02 to 10 µM) | 16 to 32 (≈ 20.1 to 40.2 µM) | 1 to 2 (≈ 1.25 to 2.51 µM) |
| CN(CCN1CCN(C(=O)N[C@@H](C(=O)N[C@H]2Cc3ccc(F)c(C(=O)O)c3OB2O)c2cc(F)c(O)c(O)c2Cl)C(=O)C1=O)Cc1ccc(C(N)=O)cc1 [Example 226, (R)-3-((R)-2-(4-(2-((4-carbamoylbenzyl)(methyl)amino)ethyl)-2,3-dioxopiperazine-1-carboxamido)-2-(2-chloro-5-fluoro-3,4-dihydroxyphenyl)acetamido)-7-fluoro-2-hydroxy-3,4-dihydro-2H-benzo[e][1,2]oxaborinine-8-carboxylic acid] | < 10 | 2 to 4 (≈ 2.59 to 5.18 µM) | 16 to 32 (≈ 20.7 to 41.4 µM) | 16 to 32 (≈ 20.7 to 41.4 µM) | > 64 | 16 to 32 (≈ 20.7 to 41.4 µM) | 2 to 4 (≈ 2.59 to 5.18 µM) | < 10 | 8 to 16 (≈ 10.4 to 20.7 µM) | 16 to 32 (≈ 20.7 to 41.4 µM) | 16 to 32 (≈ 20.7 to 41.4 µM) | 1 to 2 (≈ 1.29 to 2.59 µM) | – | – | – | – | – | – | – |
| O=C(NCCCS(=O)(=O)N1CCN(C(=O)NC(C(=O)N[C@H]2Cc3ccc(F)c(C(=O)O)c3OB2O)c2cc(F)c(O)c(O)c2Cl)C1=O)c1ccncc1 (stereo partly drawn) [Example 272, (3R)-3-(2-(2-chloro-5-fluoro-3,4-dihydroxyphenyl)-2-(3-((3-(isonicotinamido)propyl)sulfonyl)-2-oxoimidazolidine-1-carboxamido)acetamido)-7-fluoro-2-hydroxy-3,4-dihydro-2H-benzo[e][1,2]oxaborinine-8-carboxylic acid] | < 10 | 8 to 16 (≈ 10.2 to 20.5 µM) | – | – | – | – | > 128 | < 10 | 8 to 16 (≈ 10.2 to 20.5 µM) | – | – | – | 4 to 8 (≈ 5.12 to 10.2 µM) | 16 to 32 (≈ 20.5 to 41 µM) | > 64 | 16 to 32 (≈ 20.5 to 41 µM) | 16 to 32 (≈ 20.5 to 41 µM) | 16 to 32 (≈ 20.5 to 41 µM) | 4 to 8 (≈ 5.12 to 10.2 µM) |
| O=C(CN1CCN(C(=O)N[C@@H](C(=O)N[C@H]2Cc3ccc(F)c(C(=O)O)c3OB2O)c2cc(F)c(O)c(O)c2Cl)C(=O)C1=O)NCc1nccs1 [Example 241, (R)-3-((R)-2-(2-chloro-5-fluoro-3,4-dihydroxyphenyl)-2-(2,3-dioxo-4-(2-oxo-2-((thiazol-2-ylmethyl)amino)ethyl)piperazine-1-carboxamido)acetamido)-7-fluoro-2-hydroxy-3,4-dihydro-2H-benzo[e][1,2]oxaborinine-8-carboxylic acid] | < 10 | 8 to 16 (≈ 10.9 to 21.7 µM) | 16 to 32 (≈ 21.7 to 43.4 µM) | 4 to 8 (≈ 5.43 to 10.9 µM) | 16 to 32 (≈ 21.7 to 43.4 µM) | 4 to 8 (≈ 5.43 to 10.9 µM) | 2 to 4 (≈ 2.71 to 5.43 µM) | < 10 | < 1 | 4 to 8 (≈ 5.43 to 10.9 µM) | 16 to 32 (≈ 21.7 to 43.4 µM) | 1 to 2 (≈ 1.36 to 2.71 µM) | – | – | – | – | – | – | – |
| O=C(NCCN1CCN(C(=O)NC(C(=O)N[C@H]2Cc3ccc(F)c(C(=O)O)c3OB2O)c2cc(F)c(O)c(O)c2Cl)C(=O)C1=O)c1nccs1 (stereo partly drawn) [Example 218, (3R)-3-(2-(2-chloro-5-fluoro-3,4-dihydroxyphenyl)-2-(2,3-dioxo-4-(2-(thiazole-2-carboxamido)ethyl)piperazine-1-carboxamido)acetamido)-7-fluoro-2-hydroxy-3,4-dihydro-2H-benzo[e][1,2]oxaborinine-8-carboxylic acid] | < 10 | 8 to 16 (≈ 10.9 to 21.7 µM) | > 64 | 16 to 32 (≈ 21.7 to 43.4 µM) | > 64 | 16 to 32 (≈ 21.7 to 43.4 µM) | 8 to 16 (≈ 10.9 to 21.7 µM) | < 10 | 8 to 16 (≈ 10.9 to 21.7 µM) | 16 to 32 (≈ 21.7 to 43.4 µM) | 16 to 32 (≈ 21.7 to 43.4 µM) | 1 to 2 (≈ 1.36 to 2.71 µM) | – | – | – | – | – | – | – |

Reference: patent US20240270762A1, “PENICILLIN-BINDING PROTEIN INHIBITORS” (priority 2021, published 2024)
